2 substances from patent publication US5223484A, “Peptide which regulates weight gain in mammals” (Georgetown University, priority 1990, dated 1993) can be followed below.

Experiment [1] can be described thus: Weight gain of mice injected with free peptide. Format: in vivo, mice (BALB/c strain). To be noted: BALB/c mice, free peptide 2.5 μg subcutaneously once per week, 85 days, five mice per group. Here is the method:
In order to obtain statistically significant data on the effects of peptide P2 on weight gain, another series of experiments using mice were performed. Three groups of five mice (BALB/c strain) were used. The first group received injections of peptide P2, a second group received injections of P3 (as control), and a third group received injections of saline (as control). Free peptides were used to avoid the possibility that the effect observed in Example 1 may have been due to the nature of the chemical coupling to the carrier protein. Each mouse (weighing approximately 15 grams) received an injection of 2.5 μg (1.5 nanomoles) of peptide or saline injected subcutaneously. The mice were weighed three times per week and injected once per week with another 2.5 μg of peptide or saline. After 85 days the mice were sacrificed.

Experiment [2] in a line: Body weight of rabbits injected with peptide/carrier conjugate. It counts as in vivo. The conditions noted are these: female rabbits, peptide coupled to keyhole limpet hemocyanin, 50 μg of peptide subcutaneously, repeated at two weeks then approximately monthly; P1 and P3 pooled (five rabbits). Here is the method:
These peptides were then coupled chemically to keyhole limpet hemocyanin, a carrier protein, to improve the immunogenicity in rabbits.
Each peptide/carrier conjugate (50 μg of peptide, approximately 30 nanomoles) was injected subcutaneously into three female rabbits (three groups of three rabbits, approximately 2 months old). Two weeks later the rabbits were injected again with the same amounts of peptide/carrier conjugate. Thereafter, each rabbit was injected with the conjugate at approximately monthly intervals and blood samples were drawn. After five months, the rabbits were sacrificed.
Before the first injection, the rabbits were weighed for calculation of anesthetic dose (used to sedate the rabbits during injection). Before the rabbits were sacrificed, they were weighed again as the rabbits which received P2 were quite obese compared to all other rabbits. The average weight of the five injected with peptides P1 and P3 was 4.4 kg. This is normal for adult female rabbits of this type at this age, i.e. the average weight expected at 6 months is 4.5 kg. However, the weights of the rabbits injected with peptide P2 averaged 5.2 kg, approximately 20% higher.

For “P3: amino-terminal cytochrome b 561 sequence Ser(21) - Tyr(37), cysteine added at amino-terminus, two lysine residues at carboxy-terminus (CSMEGPASPARAPGALPYKK)”, the “effect on weight gain” value in experiment [1] is on record as “not different than the P3 control group”. Also, in experiment [2], the “average weight of the rabbits at the end of five months” value was found to be 4.4 kg.
On to KRPLQAEEQALSMDF [P1], for which the “average weight of the rabbits at the end of five months” value in experiment [2] was found to be 4.4 kg.
